T1: ApoER2 (Mus musculus, UniProt Q924X6)
T1 construct: expressed in transfected cells; host or cells: HEK293 (inferred; the pull-down text names HEK293 lysates only for X11-transfected cells)
T1 sequence (Q924X6 29-996): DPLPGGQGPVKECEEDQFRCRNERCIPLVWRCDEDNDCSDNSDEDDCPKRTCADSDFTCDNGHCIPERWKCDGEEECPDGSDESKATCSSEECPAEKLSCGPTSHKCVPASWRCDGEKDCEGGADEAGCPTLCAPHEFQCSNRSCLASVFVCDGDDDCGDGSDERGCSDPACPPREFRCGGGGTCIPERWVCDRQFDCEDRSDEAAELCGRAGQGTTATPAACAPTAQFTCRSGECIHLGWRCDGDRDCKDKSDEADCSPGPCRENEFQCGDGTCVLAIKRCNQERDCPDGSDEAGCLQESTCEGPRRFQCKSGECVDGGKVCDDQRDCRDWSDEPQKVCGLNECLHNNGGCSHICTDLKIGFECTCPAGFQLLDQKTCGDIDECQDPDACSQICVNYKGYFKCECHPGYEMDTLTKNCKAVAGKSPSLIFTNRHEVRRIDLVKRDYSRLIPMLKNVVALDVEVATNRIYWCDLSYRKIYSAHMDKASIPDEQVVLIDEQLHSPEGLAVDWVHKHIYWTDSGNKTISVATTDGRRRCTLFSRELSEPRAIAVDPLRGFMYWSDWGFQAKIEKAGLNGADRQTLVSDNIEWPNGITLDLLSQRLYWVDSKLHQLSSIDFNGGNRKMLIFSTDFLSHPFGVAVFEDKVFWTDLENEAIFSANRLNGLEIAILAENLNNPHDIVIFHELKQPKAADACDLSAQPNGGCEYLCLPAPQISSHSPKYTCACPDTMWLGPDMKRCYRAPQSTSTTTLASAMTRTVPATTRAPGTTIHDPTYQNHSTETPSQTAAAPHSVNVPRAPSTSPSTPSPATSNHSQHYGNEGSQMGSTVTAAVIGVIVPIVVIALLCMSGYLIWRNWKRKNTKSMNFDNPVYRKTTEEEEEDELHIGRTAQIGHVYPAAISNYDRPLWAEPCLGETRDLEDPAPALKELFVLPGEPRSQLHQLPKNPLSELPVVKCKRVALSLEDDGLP

B1: PTB domain: PTB domain of X11α (residue 457-751), expressed from pcDNA6 as dominant-negative inhibitor or as GST fusion (protein)
chain: DGIIFAANYLGSTQLLSDKTPSKNVRMMQAQEAVSRIKMAQKLAKSRKKAPEGESQPMTEVDLFISTQRIKVLNADTQETMMDHPLRTISYIADIGNIVVLMARRRMPRSNSQENVEASHPSQDGKRQYKMICHVFESEDAQLIAQSIGQAFSVAYQEFLRANGINPEDLSQKEYSDLLNTQDMYNDDLIHFSKSENCKDVFIEKQKGEILGVVIVESGWGSILPTVIIANMMHGGPAEKSGKLNIGDQIMSINGTSLVGLPLSTCQSIIKGLKNQSRVKLNIVRCPPVTTVLIR
modifications: left off: a dimerising Fc or GST

Legend:
N2a-APPsw cells [1] = assay: Cellular Aβ production in N2a-APPsw cells (Aβ40 ELISA of conditioned medium); type: cell-based, mouse
Protocol: Quantification of β-Amyloid40, Neuro-2a cell stably overexpressing APPsw695 was used for detecting of β-Amyloid40. N2a-APPsw cells were grown in Dulbecco's Modified Eagle's medium (DMED) containing 10% fetal bovine serum, 100 U/mL penicillin, and 100 μg/mL streptomycin (GibcoBUR) with 80 μg/mL G418. Cells were cultured in 24-well plates one day before treatment. Transient transfections were done using FeGENE6 (Roche), fresh Optimum medium (Invitrogen) were supplied 5 h after transfection. Same concentration purified Apolipoprotein was added into the fresh medium. Conditioned medium was collected 24 h later. Aβ40 was quantified with sandwich ELISA by using Aβ40 ELISA Kit (Biosource). At least three times assays were done for each condition.
(§1) Cellular Aβ40 production. Neuroblastoma N2a-APPsw cells (from Dr. Riqiang Yan, Lerner Research Institute, Cleveland, Ohio) were cultured in 24-well plates in Dulbecco's Modified Eagle's medium (DMED) containing 10% fetal bovine serum, 100 U/mL penicillin, and 100 μg/mL streptomycin (GibcoBUR) with 80 μg/mL G418 one day before use. Transient transfections were done using FeGENE6 (Roche), fresh Optimum medium (Invitrogen) were supplied 5 h after transfection. Apolipoproteins were added in the fresh medium at 10 μg/mL. Conditioned medium was collected 24 h later. Aβ40 was determined in tripcates using Aβ40 ELISA Kit (Biosource). For studying the effect of PTB domain on Aβ production, N2a-APPsw cells were transfected with (0.4 μg/per well for 24 well plate) of PTB-containing vector before subjected to the above procedure.

[2] = target: LDL (low-density lipoprotein) lipid receptor (Homo sapiens, UniProt P01130); conditions: cited from earlier work
[3] = system: N2a-APPsw cells transfected with ApoER2 and β-secretase; assay: Internalization of cell surface proteins (biotinylation, Western blot); type: cell-based, mouse
Protocol: Internalization of cell surface proteins. N2a-APPsw cells were transiently tranfected with ApoER2 and β-secretase with Lipfectamine 2000. […] Cells were then placed on ice, rinsed in cold PBS and incubated in PBS containing 1.5 mg/mL sulfo-NHS-LC-biotin (Pierce) for 20 min at 4° C. Cells were rinsed twice in PBS and lysed in 800 μl PBS containing 0.1% SDS, 1% NP40 and a complete protease inhibitor cocktail. Total protein concentration was determined by immunoblotting from an aliquot of 50 μl cell lysate. Biotinylated proteins were recovered with NeutrAvidin agarose (50 μl; Pierce), rinsed three times, eluted in 20 μl SDS-sample buffer at boiling temperature and used for Western-blot. Quantity of bands was determined by optical scanning instruments specified above. For the determination of internalized proteins, cells were prepared as above, rinsed in PBS and then incubated with cold 1.5 mg/mL cleavable biotin reagent in PBS (EZ-Link Sulfo-NHS-SS biotin, Pierce) for 20 min at 4° C. […] Cells were then lysed in 800 μl PBS containing 0.1% SDS, 1% NP40 and a complete protease inhibitor cocktail. After centrifugation, biotinylated proteins were retrieved by incubation with NeutrAvidin agarose (50 μl; Pierce). Isolated proteins were rinsed in buffer three times and boiled in 20 μl sample buffer for Western blots.

N2a-APPsw cells [4] = assay: Cellular Aβ production in N2a-APPsw cells (Aβ40 ELISA of conditioned medium); type: cell-based, mouse; remark: listed apart in the source
[5] = system: N2a-APPsw cells transfected with ApoER2 and β-secretase; assay: Internalization of cell surface proteins (biotinylation, Western blot); type: cell-based, mouse; conditions: Western blot of conditioned medium (FIG. 6D)
endogenous X11α/β = assay: Effect of transfected PTB domain of X11α on ApoE-induced Aβ production; type: cell-based, mouse; conditions: PTB expression in N2a-APPsw cells, 0.4 μg vector per well (FIG. 9B)
Protocol: as §1

ApoER2 = target: T1, ApoER2; assay: GST pull-down of ApoER2 by X11α domains; type: binding, murine; conditions: GST fusions of X11α domains, Western blot (FIG. 8A)
Description: cDNA vectors. Vectors for human β-secretase and Swedish mutant of APP were previously described (Lin et al., 2000). Vectors for human X11α, X11β, human LRP, and murine ApoER2 were kindly provided by Dr. Chistopher C J Miller (Kings College London, UK), Dr. Ben Margolis (University of Michigan), Dr. Guojun Bu (Washington University), and Dr. Johannes Nimpf (University of Vienna, Austria) respectively. PCR was used for transferring murine ApoER2 gene into pcDNA6 with V5-His-Tag at the C-terminus and for creating mutants of murine ApoER2 in pcDNA6. PTB domain of X11α (residue 457-751) were amplified by PCR and inserted into pcDNA6. GST constructs of GST-PTB (457-751), GST-PDZ (650-837) of X11α and GST constructs of ApoER2 cytosolic domain GST-ApoC1 (881-996), GST-ApoC2 (881-925), GST-ApoC3 (926-996) and GST-APPc (650-695) were amplified by PCR and inserted into plasmid pGEX6.1 (Pharmacia). All constructs were verified by sequencing. GST fusion proteins were produced in Escherichia coli BL21 strain and purified as described previously (He et al., 2003).
Pull-down assays. For GST pull down, GST fusion proteins were retrieved as previously described (He et al., 2003). The amount of protein recovered with glutathione beads was determined using Bio-Rad Protein Assay and diluted to yield a concentration of 1 mg protein/mL of beads. […]

[6] = 10 μg/mL, internalization 15 min at 37° C. (FIG. 6B)

Chain of LDL (low-density lipoprotein) lipid receptor (P01130 22-860): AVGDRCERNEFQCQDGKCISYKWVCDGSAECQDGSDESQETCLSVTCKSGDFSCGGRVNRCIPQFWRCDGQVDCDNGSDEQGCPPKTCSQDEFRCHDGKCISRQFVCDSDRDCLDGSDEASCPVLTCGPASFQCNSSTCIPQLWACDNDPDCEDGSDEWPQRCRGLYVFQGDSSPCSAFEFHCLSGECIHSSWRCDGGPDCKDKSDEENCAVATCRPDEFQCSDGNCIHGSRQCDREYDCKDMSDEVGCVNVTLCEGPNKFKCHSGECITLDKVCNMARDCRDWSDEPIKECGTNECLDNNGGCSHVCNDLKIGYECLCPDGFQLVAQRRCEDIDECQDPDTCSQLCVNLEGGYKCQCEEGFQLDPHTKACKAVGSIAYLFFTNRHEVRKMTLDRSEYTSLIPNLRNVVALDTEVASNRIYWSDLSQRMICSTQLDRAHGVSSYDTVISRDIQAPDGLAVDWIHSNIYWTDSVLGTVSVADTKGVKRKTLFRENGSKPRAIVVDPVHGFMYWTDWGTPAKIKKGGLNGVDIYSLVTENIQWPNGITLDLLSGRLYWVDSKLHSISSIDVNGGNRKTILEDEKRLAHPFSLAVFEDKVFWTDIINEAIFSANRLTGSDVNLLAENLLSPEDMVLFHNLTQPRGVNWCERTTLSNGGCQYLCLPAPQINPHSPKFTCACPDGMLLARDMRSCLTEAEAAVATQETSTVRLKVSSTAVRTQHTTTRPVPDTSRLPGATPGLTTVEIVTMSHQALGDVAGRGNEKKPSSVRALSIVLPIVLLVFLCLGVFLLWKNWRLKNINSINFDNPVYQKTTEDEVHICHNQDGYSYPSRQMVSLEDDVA

Molecule	Aβ production in cells transfected with ApoER2 versus without (N2a-APPsw cells [1]; N2a-APPsw cells (FIG. 5D))	Aβ40 and Aβ42 production, ApoE4 in native human VLDL versus ApoE2 and ApoE3 (N2a-APPsw cells [1]; VLDL from individual human plasma, N2a-APPsw cells (FIG. 5C))	Aβ production (N2a-APPsw cells [1]; recombinant ApoE forms at 10 μg/ml, N2a-APPsw cells (FIG. 5B))	normal receptor binding activity [2]	total amounts of ApoER2, APP and β-secretase in the cell lysates ([3]; 10 μg/mL, 2 h)	decrease of remaining cell-surface β-secretase ([3]; 10 μg/mL, 2 h, compared to controls (FIG. 6A))	increase of intracellular APP [3, 6]	increase of intracellular ApoER2 [3, 6]	increase of intracellular β-secretase [3, 6]	intracellular APP C-terminal fragment C99 ([3]; Western blot, over the control (FIG. 6C))	Aβ40 increase in cells transfected with ApoER2 versus blank vectors (N2a-APPsw cells [4]; 5 μg/mL, N2a APPsw cells, p<0.05 (FIG. 4))	Aβ40 levels in medium (N2a-APPsw cells [4]; 5 μg/mL, blank vector transfected N2a APPsw cells vs control (FIG. 4))	Aβ production (N2a-APPsw cells [4]; each at 5 μg/mL, 24 h, N2a-APPsw cells (FIG. 5B legend))	APP ectodomain generated by ∝-secretase, s∝-APP [5]	ApoE4-induced Aβ increase (endogenous X11α/β)	pull down of ApoER2 from the cell lysate (ApoER2)
ApoE4: ApoE isoform with arginine substituted for cysteine at residue 112; from Biodesign / Alpha Diagnostic	produced more Aβ	stimulates higher Aβ production	increased Aβ production (FIG. 5B) with the highest response	100%	remained about the same	~35%	~4 fold	small increases	small increases	significantly increased	increase of Aβ40 at a greater extent	increased over that in the control cells	increased Aβ production	reduction		
B1															largely abolished	pull down ApoER2
